According to patent US12023330B2, “Use of manzamines as antiproliferative agent” (priority 2020, dated 2024):

What was measured:
[1] = system: cervical cancer cell lines (SiHa and CaSki); assay: Cell growth of manzamine-related compounds; assay type: cell-based, human
Method: (§1) Based on MoIN, the additional manzamine-related compounds such as manzamine D (2), manzamine F (3), 8-hydroxymanzamine A (4), and ircinal A (5) were tested for their biological activities targeting cervical cancer cell lines (SiHa and CaSki).
Cell Growth Kinetics. Cervical cancer cells (1×10^6) or HKc (2×10^5) were plated in 100 mm tissue culture petri dish or 6-well plates. Following overnight incubation, cells were treated with 2 μM or 4 μM concentrations of manzamine A (1) derivatives for different time points (24, 48 and 72 hours). Dimethyl sulphoxide (DMSO) was used as control. The cell proliferation activity was determined by cell counting under the microscope with a hemocytometer using trypan blue staining.

[2] = system: normal human keratinocytes (HKc); assay: Cell growth kinetics of normal keratinocytes; assay type: cell-based; conditions: 4 μM stated for compound 4; 48 h and 72 h; vs DMSO control
Method: as §1
Generation of Normal Human Keratinocytes (HKc). The generation and processing of normal HKc from de-identified foreskin tissue samples has previously been described in our studies, see Pirisi, L.; Yasumoto, S.; Feller, M.; Doniger, J.; DiPaolo, J. A. J. Virol. 1987, 61, 1061-1066, and was implemented with the following modifications: dispase was used in lieu of collagenase, and a trypsinization step was added to release the epidermal cells. Briefly, to generate normal HKc primary cultures, the foreskin tissue, free of subcutaneous tissue, was placed in 10% dispase in phosphate buffer saline (PBS) and incubated overnight at 37° C. The next day, the epidermis was separated from the dermis, and processed mechanically by shredding the tissue into smaller pieces that were then treated with Trypsin/EDTA for 10 minutes at 37° C. Following the addition of fetal bovine serum (10%) to stop the trypsin action, cells were collected by centrifugation and plated in keratinocytes serum free medium (KSFM).
Cell Growth Kinetics. […] The cell proliferation activity was determined by cell counting under the microscope with a hemocytometer using trypan blue staining.

SMILES	effect on cervical cancer cell growth [1]	cell growth kinetics of normal HKc [2]
O=C1CCCN2[C@@H](CC1)C[C@]13CN4CCCC/C=C\CC[C@](O)(C=C(c5nccc6c5[nH]c5c(O)cccc56)C1CC4)[C@H]23 (some centres unmarked) [manzamine F]	did not reveal any effect	
O[C@]12C=C(C3NCCc4c3[nH]c3ccccc43)[C@@H]3CCN(CCCC/C=C\CC1)C[C@@]31C[C@@H]3/C=C\CCCCN3[C@H]12 (some centres unmarked) [manzamine D]	did not reveal any effect	
O=CC1=C[C@@]2(O)CC/C=C\CCCCN3CC[C@@H]1[C@]1(CC4/C=C\CCCCN4[C@H]12)C3 (some centres unmarked) [ircinal A]	did not reveal any effect	
Oc1cccc2c1[nH]c1c(C3=C[C@@]4(O)CC/C=C\CCCCN5CC[C@@H]3[C@]3(C[C@@H]6/C=C\CCCCN6[C@H]34)C5)nccc12 [8-hydroxymanzamine A]	showed inhibition	inhibited significantly
